Reference: ChEMBL document CHEMBL4382233, “Discovery of novel arylethenesulfonyl fluorides as potential candidates against methicillin-resistant of Staphylococcus aureus (MRSA) for overcoming multidrug resistance of bacterial infections” (2019)
Values after ≈ are worked out from the molar mass of the structure shown.

Assays:
Type in all cases: functional
[1] = tested on: Staphylococcus haemolyticus; experiment: Antibacterial activity against methicillin-resistant Staphylococcus haemolyticus after overnight incubation by micro broth dilution analysis
Staphylococcus aureus [2] = experiment: Antibacterial activity against methicillin-resistant Staphylococcus aureus assessed as zone of inhibition at 50 ug/mL after 24 hrs by agar disc diffusion method; details: read-out: IZ
Staphylococcus aureus [3] = experiment: Antibacterial activity against methicillin-resistant Staphylococcus aureus assessed as zone of inhibition at 200 ng/mL after 24 hrs by agar disc diffusion method; details: read-out: IZ
[4] = tested on: Staphylococcus epidermidis; experiment: Antibacterial activity against methicillin-resistant Staphylococcus epidermidis assessed as zone of inhibition at 20 ug/mL after 24 hrs by agar disc diffusion method; details: read-out: IZ
[5] = tested on: Staphylococcus epidermidis; experiment: Antibacterial activity against methicillin-resistant Staphylococcus epidermidis after overnight incubation by micro broth dilution analysis
Staphylococcus aureus [6] = experiment: Antibacterial activity against methicillin-resistant Staphylococcus aureus assessed as zone of inhibition at 400 ng/mL after 24 hrs by agar disc diffusion method; details: read-out: IZ
Staphylococcus aureus [7] = experiment: Antibacterial activity against methicillin-resistant Staphylococcus aureus after overnight incubation by micro broth dilution analysis
Staphylococcus aureus [8] = experiment: Antibacterial activity against methicillin-resistant Staphylococcus aureus assessed as zone of inhibition at 800 ng/mL after 24 hrs by agar disc diffusion method; details: read-out: IZ
[9] = tested on: Staphylococcus haemolyticus; experiment: Antibacterial activity against methicillin-resistant Staphylococcus haemolyticus assessed as zone of inhibition at 50 ug/mL after 24 hrs by agar disc diffusion method; details: read-out: IZ
[10] = tested on: Staphylococcus epidermidis; experiment: Antibacterial activity against methicillin-resistant Staphylococcus epidermidis assessed as zone of inhibition at 800 ng/mL after 24 hrs by agar disc diffusion method; details: read-out: IZ
[11] = tested on: Staphylococcus epidermidis; experiment: Antibacterial activity against methicillin-resistant Staphylococcus epidermidis assessed as zone of inhibition at 400 ng/mL after 24 hrs by agar disc diffusion method; details: read-out: IZ
[12] = tested on: Staphylococcus epidermidis; experiment: Antibacterial activity against methicillin-resistant Staphylococcus epidermidis assessed as zone of inhibition at 200 ng/mL after 24 hrs by agar disc diffusion method; details: read-out: IZ
[13] = tested on: Staphylococcus haemolyticus; experiment: Antibacterial activity against methicillin-resistant Staphylococcus haemolyticus assessed as zone of inhibition at 200 ng/mL after 24 hrs by agar disc diffusion method; details: read-out: IZ
[14] = tested on: Staphylococcus haemolyticus; experiment: Antibacterial activity against methicillin-resistant Staphylococcus haemolyticus assessed as zone of inhibition at 800 ng/mL after 24 hrs by agar disc diffusion method; details: read-out: IZ
[15] = tested on: Staphylococcus haemolyticus; experiment: Antibacterial activity against methicillin-resistant Staphylococcus haemolyticus assessed as zone of inhibition at 400 ng/mL after 24 hrs by agar disc diffusion method; details: read-out: IZ

Compound | MIC99 [1] | zone of inhibition at 50 µg/mL (Staphylococcus aureus [2]) | zone of inhibition at 0.2 µg/mL (Staphylococcus aureus [3]) | zone of inhibition at 20 µg/mL [4] | MIC99 [5] | zone of inhibition at 0.4 µg/mL (Staphylococcus aureus [6]) | MIC99 (Staphylococcus aureus [7]) | zone of inhibition at 0.8 µg/mL (Staphylococcus aureus [8]) | zone of inhibition at 50 µg/mL [9] | zone of inhibition at 0.8 µg/mL [10] | zone of inhibition at 0.4 µg/mL [11] | zone of inhibition at 0.2 µg/mL [12] | zone of inhibition at 0.2 µg/mL [13] | zone of inhibition at 0.8 µg/mL [14] | zone of inhibition at 0.4 µg/mL [15]
O=S(=O)(F)/C=C/c1ccc(O)cc1 | 57.1 µg/mL (≈ 283 µM) | 10.2 mm | 3.2 mm | 4.5 mm | 45 µg/mL (≈ 223 µM) | 4.3 mm | 16.1 µg/mL (≈ 79.4 µM) | 5.2 mm | 3.5 mm | – | – | – | – | – | –
O=S(=O)(F)/C=C/C=C/c1cccc(F)c1 | 50.1 µg/mL (≈ 218 µM) | 7.2 mm | – | 8.3 mm | 0.82 µg/mL (≈ 3.56 µM) | – | 48 µg/mL (≈ 209 µM) | – | 5.5 mm | 8.3 mm | 6.1 mm | 4.2 mm | – | – | –
CC(C)c1cccc(/C=C/S(=O)(=O)F)c1 | 43 µg/mL (≈ 189 µM) | 20.1 mm | 3.1 mm | 18 mm | 0.81 µg/mL (≈ 3.55 µM) | 3.5 mm | 16.1 µg/mL (≈ 70.3 µM) | 4.2 mm | 4.2 mm | 15.1 mm | 12.2 mm | 9.2 mm | – | – | –
O=[N+]([O-])c1ccccc1/C=C/C=C/S(=O)(=O)F | 16.2 µg/mL (≈ 62.8 µM) | 5.5 mm | – | 6.2 mm | 44 µg/mL (≈ 171 µM) | – | 47 µg/mL (≈ 183 µM) | – | 6.5 mm | – | – | – | 3.2 mm | 5.2 mm | 4.2 mm
O=S(=O)(F)/C=C/c1ccc(F)cc1F | 55.1 µg/mL (≈ 248 µM) | 14.1 mm | 3.1 mm | 3.7 mm | 47 µg/mL (≈ 212 µM) | 3.5 mm | 16.1 µg/mL (≈ 72.3 µM) | 4.1 mm | 3.5 mm | – | – | – | – | – | –
CSc1ccc(/C=C/S(=O)(=O)F)cc1 | 0.838 µg/mL (≈ 3.61 µM) | 6.2 mm | – | 6.4 mm | 0.835 µg/mL (≈ 3.59 µM) | – | 41.1 µg/mL (≈ 177 µM) | – | 8.2 mm | – | – | – | 3.1 mm | 7.4 mm | 5.2 mm
O=S(=O)(F)/C=C/c1ccc(F)cc1 | 57.3 µg/mL (≈ 281 µM) | 10.1 mm | 3.5 mm | 5.2 mm | 61.1 µg/mL (≈ 299 µM) | 4.1 mm | 16.1 µg/mL (≈ 79 µM) | 4.5 mm | 4.2 mm | – | – | – | – | – | –
COc1cc(/C=C/S(=O)(=O)F)cc(OC)c1 | 50 µg/mL (≈ 203 µM) | 18.1 mm | 1.2 mm | 5.3 mm | 57.1 µg/mL (≈ 232 µM) | 13.1 mm | 0.81 µg/mL (≈ 3.29 µM) | 15.1 mm | 4.5 mm | – | – | – | – | – | –
O=S(=O)(F)/C=C/c1ccc(Br)cc1 | 66.1 µg/mL (≈ 249 µM) | 7.5 mm | – | 7.3 mm | 0.837 µg/mL (≈ 3.16 µM) | – | 48.2 µg/mL (≈ 182 µM) | – | 6.1 mm | 7.5 mm | 6.2 mm | 5.2 mm | – | – | –
O=S(=O)(F)/C=C/c1ccsc1 | 48 µg/mL (≈ 250 µM) | 8.2 mm | 3.2 mm | 8.5 mm | 66.1 µg/mL (≈ 344 µM) | 4.2 mm | 16.6 µg/mL (≈ 86.4 µM) | 4.5 mm | 4.52 mm | – | – | – | – | – | –
O=S(=O)(F)/C=C/c1cc(O)cc(O)c1 | 49 µg/mL (≈ 225 µM) | 12.2 mm | 3.5 mm | 9.3 mm | 0.846 µg/mL (≈ 3.88 µM) | 4.2 mm | 17 µg/mL (≈ 78 µM) | 4.5 mm | 4.2 mm | 6.2 mm | 4.2 mm | 3.1 mm | – | – | –
O=S(=O)(F)/C=C/c1ccccc1O | 61 µg/mL (≈ 302 µM) | 12.1 mm | 3.5 mm | 6.2 mm | 58 µg/mL (≈ 287 µM) | 5.2 mm | 0.853 µg/mL (≈ 4.22 µM) | 7.7 mm | 3.5 mm | – | – | – | – | – | –
O=S(=O)(F)/C=C/C=C/c1ccc(F)c(F)c1 | 55.1 µg/mL (≈ 222 µM) | 6.1 mm | – | 5.5 mm | 51.6 µg/mL (≈ 208 µM) | – | 50.1 µg/mL (≈ 202 µM) | – | 4.3 mm | – | – | – | – | – | –
